Assays:
luciferase plasmid = test: pDNA transfection efficiency with luciferase plasmid; assay type: cell-based
Procedure: FIG. 10 depicts transfection efficiency of (A) L-PEI and L-PolyMet and (B) B-PEI and B-PolyMet at the indicated N/P ratios. Luciferase pDNA concentration was 0.5 μg/well in 96-well plate. Data are mean±S.D. (n=6 per group).

H460 tumor cells = test: TUNEL assay of in vivo tumor cell apoptosis; design: species or system mice; settings: H460 tumors after IV treatment
Procedure: (§1) FIG. 7A depicts Metformin and PolyMet inhibition of tumor growth by activation of AMPK, inhibiting the mTOR pathway; FIG. 7B depicts inducing autophagy and apoptosis mechanisms. Mice bearing H460 tumors were given IV injections every other day and analysis of tumor proteins was prepared 24 h after the second injection. Cells under autophagy were stained by LC3b antibody (red) and apoptosis of cells was indicated by TUNEL assay (green). Nuclei are stained blue. The percentage denotes the average percentage of LC3b positive cells (red) and the percentage of TUNEL positive cells (green), respectively. Five randomly selected microscopic fields were quantitatively analyzed on ImageJ. Data are mean±S.D. (n=5 per group).
FIG. 8 depicts in vitro and in vivo gene silencing effect of different LPH nanoparticles. […] Luciferase activities of cells were analyzed and normalized by protein. *p<0.05, **p<0.01, ***p<0.001. […] H460 tumor-bearing mice were injected intravenously every other day; FIG. 8B depicts tumor BCL2 protein levels after 2 injections were measured by western blot analysis; FIG. 8C depicts tumor volumes were measured every day; FIG. 8D depicts TUNEL staining in H460 tumor cells after treatment with siRNA in different formulations in vivo. […] Five randomly selected microscopic fields were quantitatively analyzed on ImageJ. […]

mTOR = test: Western blot of tumor proteins: p-mTOR/mTOR; assay type: in vivo, mice; settings: H460 tumors; compared to the PBS and LPH-PEI
Procedure: as §1
(§2) H460 tumor-bearing mice were given IV injections every second day and mice were sacrificed 24 hours after the third injection. Protein per lane was separated by 4%-12% SDS-PAGE electrophoresis (Invitrogen) before being transferred to polyvinylidene difluoride (PVDF) membranes (Bio-Rad). The membranes were blocked for 1 h with 5% non fat dry milk (Bio-Rad) at room temperature and then incubated with antibodies overnight at 4° C. The membranes were washed 3 times and then incubated with a secondary antibody (1:4,000 dilution; Cell signal Inc.) at room temperature for 1 h. […]

AMPKα = test: Western blot of tumor proteins: AMPKα phosphorylation; assay type: in vivo, mice; settings: H460 tumors, IV every other day
Procedure: as §1, §2

LC3b = LC3b immunostaining of H460 tumors (autophagy); assay type: in vivo, mice; settings: vs other groups
Procedure: as §1

H460 tumor = test: H460 xenograft tumor growth / antitumor activity; assay type: in vivo, mice; settings: vs PBS and LPH-PEI groups; IV 0.4 mg/kg body weight every other day
Procedure: FIG. 6A depicts Metformin and PolyMet inhibit H460 tumor growth. PBS, metformin, LPH-PEI and LPH-PolyMet were administered intravenously every other day, and mice were sacrificed 24 hours after the final injection. In FIG. 6A, tumor volumes were measured every day; FIG. 6B depicts tumor weights were measured on day after final injection and compared with body weights to determine percentage of tumor burden; FIG. 6C depicts visual observations of the H460 tumor sizes in each treatment group at the end time point; (n=5 per group).
Female nude female mice and female CD1 mice that were 6-8 weeks old were used in the studies. Female nude mice were purchased from National Cancer Institute (Bethesda, Md.) and bred by the Division of Laboratory Animal Medicine (DLAM) at University of North Carolina at Chapel Hill. CD1 mice were purchased from Charles River Laboratories (Morrisville, N.C.). To establish the xenograft models, 5×10^6 cells in 100 μL of PBS were injected subcutaneously into the right flank of the mice.
Human NSCLC cells xenografts were used as previously described. H460 human lung cancer cells ([…]) were subcutaneously injected into the right flanks of female athymic nu/nu mice. […] Animal weight and tumor volumes were measured every other day. […]

| Molecule | transfection efficiency (luciferase plasmid) | percent of apoptotic (TUNEL-positive) cells (H460 tumor cells) | reduction in p-mTOR/mTOR levels (mTOR) | phosphorylation level of AMPKα relative to PBS group (AMPKα) | LC3b-associated red fluorescence (autophagy) (LC3b) | inhibition of cancer progression (tumor growth) (H460 tumor) |
| --- | --- | --- | --- | --- | --- | --- |
| protamine | did not help | – | – | – | – | – |
| CN(C)C(=N)NC(=N)N [Metformin, N,N-dimethylimidodicarbonimidic diamide] | – | 18.8% | 2.3 fold | about 9 fold | higher | significant inhibition |

Reference: patent US10426745B2, “Polymeric metformin and its use as a therapeutic agent and as a delivery vehicle” (The University of North Carolina at Chapel Hill, priority 2015, dated 2019)
